The target of the assay is T1, human HSL (Homo sapiens, UniProt Q05469).
T1 construct: generate a full length human HSL ORF with a 3′-His6 tag; made in house; host or cells: High 5 insect cells (baculovirus, pFast-BAC)
T1 sequence (Q05469 1-1076): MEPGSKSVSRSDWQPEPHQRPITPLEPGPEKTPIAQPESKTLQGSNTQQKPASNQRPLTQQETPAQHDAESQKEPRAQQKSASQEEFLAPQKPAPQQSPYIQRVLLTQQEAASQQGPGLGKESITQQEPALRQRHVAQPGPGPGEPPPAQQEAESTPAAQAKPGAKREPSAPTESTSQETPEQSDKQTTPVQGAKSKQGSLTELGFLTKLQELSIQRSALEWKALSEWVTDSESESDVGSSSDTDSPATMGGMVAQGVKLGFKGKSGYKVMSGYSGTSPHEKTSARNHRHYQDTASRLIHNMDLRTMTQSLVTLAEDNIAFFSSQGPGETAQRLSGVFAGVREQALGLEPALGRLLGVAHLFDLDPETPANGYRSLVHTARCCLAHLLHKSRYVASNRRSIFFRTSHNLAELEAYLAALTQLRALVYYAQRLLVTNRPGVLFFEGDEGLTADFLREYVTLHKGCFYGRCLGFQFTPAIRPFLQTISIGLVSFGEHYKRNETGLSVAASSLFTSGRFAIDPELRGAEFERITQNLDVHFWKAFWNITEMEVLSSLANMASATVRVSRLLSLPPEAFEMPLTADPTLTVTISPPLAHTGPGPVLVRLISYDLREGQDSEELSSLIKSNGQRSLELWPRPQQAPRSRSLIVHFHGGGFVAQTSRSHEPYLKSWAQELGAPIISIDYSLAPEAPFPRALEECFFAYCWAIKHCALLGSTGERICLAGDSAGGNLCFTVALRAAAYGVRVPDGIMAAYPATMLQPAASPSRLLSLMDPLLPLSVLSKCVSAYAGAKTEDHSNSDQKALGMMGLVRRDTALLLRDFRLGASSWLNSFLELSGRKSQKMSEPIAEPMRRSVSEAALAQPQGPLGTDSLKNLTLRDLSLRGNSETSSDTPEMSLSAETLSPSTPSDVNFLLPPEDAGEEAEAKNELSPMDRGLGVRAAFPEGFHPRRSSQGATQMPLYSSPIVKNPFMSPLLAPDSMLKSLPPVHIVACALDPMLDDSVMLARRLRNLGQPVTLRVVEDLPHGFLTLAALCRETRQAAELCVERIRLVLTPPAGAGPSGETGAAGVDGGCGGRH
Briefly: Human Hormone-Sensitive Lipase (HSL) enzyme inhibition assay (colorimetric, DMPT substrate). The class given is biochemical. Particulars: human full length HSL-His6, 2,3-dimercapto-1-propanol tributyrate substrate, 37° C. 20 minutes, absorbance at 405 nm; read-out: HSL hum IC50. The protocol:
Production of Human Full Length Hormone Sensitive Lipase-His^6:
1) Cloning: cDNA was prepared from commercial human brain polyA+ RNA and used as a template in overlapping PCR to generate a full length human HSL ORF with a 3′-His6 tag. This full length insert was cloned into the pFast-BAC vector and the DNA-sequence of several single clones was verified. DNA from a correct full length clone with the 3′His6 tag was used to transform the E. coli strain DH10BAC. Resulting bacmid DNA was used to generate a titered baculovirus stock for protein generation. The sequence of the encoded HSL conforms to Swissprot entry Q05469, with the additional C-terminal His6-tag. 2) Protein purification: Culture: 5.5 L, High 5 cells expressing human full length HSL-His^6, 48 hr., containing 25 μM E-64. Cell count: […], 90% viable. Cells were thawed. On ice, cells were suspended in Base Buffer containing 10% glycerol, 25 mM Tris-Cl, 300 mM NaCl, 10 mM imidazole, 10 mM 2-mercaptoethanol, 2 μg pepstatin/ml, 2 μg leupeptin/ml, 2 μg antipain/ml, pH 8.0 at 4° C. in a final volume of 475 ml with 3.75×10^7 cells/ml. […] was done at 3×30 sec., Lubrol PX was added to 0.2% final concentration followed by stirring for 15 min. at 4° C. and centrifugation at 25 k×g, 60 min., 4° C. Soluble proteins were mixed with 60 ml of pre-washed and equilibrated Ni-NTA Agarose (Qiagen 30210) followed by tumbling end-over-end, 45 min., 4° C., centrifugation 1000 rpm 5 min and letting resin settle 5 min. Supernatant was removed, the resin washed in the centrifuge vessel using 5 volumes of Base Buffer containing 0.2% Lubrol PX. Centrifugation was done again, then the supernatant discarded. The resin was poured onto a 0.8 μm membrane in a disposable filter unit (Nalge 450-0080), and washed with 5 volumes of Base Buffer containing 0.2% Lubrol PX. It was then washed with 30 volumes of Base Buffer containing 60 mM imidazole pH 7.5 at 4° C. The protein was eluated with 5 volumes of 25 mM Tris-Cl, 300 mM NaCl, 200 mM imidazole, 10 mM 2-mercaptoethanol, pH 7.5 at 4° C. by tumbling resin with buffer end-over-end, 30 min., 4° C. The resin was captured on a 0.2 μm membrane disposable filter unit (Millipore SCGP U02 RE) and the eluate collected in the reservoir. The eluate was concentrated using a 30 k MWCO centrifugal filter device (Sartorius Vivascience Vivacell 100, VC1022), to 20 ml. It was then dialyzed overnight at 4° C., two times against 2 L of 10% glycerol, 25 mM Tris-Cl, 300 mM NaCl, 0.2 mM EDTA, 0.2 mM DTT, pH 7.5 at 4° C. The protein was filtered using a 0.22 μm disposable filter unit (Millipore SCGP00525). The protein concentration was calculated from absorbance at 280 nm, using 280=0.67 cm-1 mg-1. Yield was 235 mg, total. The protein was stored at −80° C. Human Hormone-Sensitive Lipase (HSL) Enzyme Inhibition Assay:
HSL enzyme activity was measured by a colorimetric assay using 2,3-dimercapto-1-propanol tributyrate (Aldrich, St. Louis, Mo.) as a substrate. Typically, 1.5 mM 2,3-dimercapto-1-propanol tributyrate (DMPT) in 100 mM MOPS, pH 7.2, 0.2 mg/ml fatty acid-free BSA was prepared by sonication at 4° C. to homogenous suspension. Test compounds (2 mM stock in DMSO) were diluted 3 fold in series in DMSO. Compound solutions were diluted 24 fold in 1.5 mM DMPT containing solution and 18 ul per well was added to 384-well microplates (Corning Costar). Twelve microliters per well of human HSL (15 ug/ml) was added and the reaction mixture was incubated at 37° C. for 20 minutes. Six microliters of 12 mM dithio-bis-(2-nitrobenzoic acid) (DTNB) in DMSO plus 1.2% SDS and 0.6% Triton X-100 were added and the mixture was incubated at room temperature for 15 minutes. Product production was monitored by reading absorbance at 405 nm on an Envision Reader (PerkinElmer Life and Analytical Sciences, Shelton, Conn.).

On to `Cc1cccc(CO[C@H]2CC[C@@]3(CCN(c4ccc(OC(F)(F)F)cc4)C3=O)CC2)n1` [Example 16, (5α,8β)-8-(6-Methyl-pyridin-2-ylmethoxy)-2-(4-trifluoromethoxy-phenyl)-2-aza-spiro[4.5]decan-1-one], for which the IC50 (as a rule, the midpoint of a concentration-inhibition curve) came to 100 nM.

For `CNC(=O)O[C@H]1CC[C@@]2(CCN(c3ccc(OC(F)(F)F)cc3)C2=O)CC1` [Example 17, Methyl-carbamic acid [(5α,8β)-1-oxo-2-(4-trifluoromethoxy-phenyl)-2-aza-spiro[4.5]dec-8-yl]ester], the IC50 was 80 nM.

As for `O=C(NCCc1ccccc1)O[C@H]1CC[C@@]2(CCN(c3ccc(OC(F)(F)F)cc3)C2=O)CC1` [Example 18, Phenethyl-carbamic acid [(5α,8β)-1-oxo-2-(4-trifluoromethoxy-phenyl)-2-aza-spiro[4.5]dec-8-yl]ester], the IC50 is 60 nM.

For `O=C1N(c2ccc(OC(F)(F)F)cc2)CC[C@]12CC[C@@H](Oc1cnccn1)CC2` [Example 19, (5α,8β)-8-(Pyrazin-2-yloxy)-2-(4-trifluoromethoxy-phenyl)-2-aza-spiro[4.5]decan-1-one], the IC50 is 140 nM.

Consider `O=C1N(c2ccc(OC(F)(F)F)cc2)CC[C@]12CC[C@@H](Oc1ncccn1)CC2` [Example 20, (5α,8β)-8-(Pyrimidin-2-yloxy)-2-(4-trifluoromethoxy-phenyl)-2-aza-spiro[4.5]decan-1-one], for which the IC50 is 100 nM.

Turning to `Cc1ccc(O[C@H]2CC[C@@]3(CCN(c4ccc(OC(F)(F)F)cc4)C3=O)CC2)nn1` [Example 21, (5α,8β)-8-(6-Methyl-pyridazin-3-yloxy)-2-(4-trifluoromethoxy-phenyl)-2-aza-spiro[4.5]decan-1-one], the concentration for half-maximal inhibition (IC50) was 100 nM.

With `O=C(NCC1CC1)O[C@H]1CC[C@@]2(CCN(c3ccc(OC(F)(F)F)cc3)C2=O)CC1` [Example 22, (Cyclopropylmethyl)-carbamic acid [(5α,8β)-1-oxo-2-(4-trifluoromethoxy-phenyl)-2-aza-spiro[4.5]dec-8-yl]ester], the 50% inhibitory concentration (IC50) stood at 60 nM.

As to `COCCO[C@H]1CC[C@@]2(CCN(c3ccc(OC(F)(F)F)cc3)C2=O)CC1` [Example 23, (5α,8β)-8-(2-Methoxy-ethoxy)-2-(4-trifluoromethoxy-phenyl)-2-aza-spiro[4.5]decan-1-one], the IC50 worked out at 190 nM.

On to `CCO[C@H]1CC[C@@]2(CCN(c3ccc(OC(F)(F)F)cc3)C2=O)CC1` [Example 24, (5α,8β)-8-Ethoxy-2-(4-trifluoromethoxy-phenyl)-2-aza-spiro[4.5]decan-1-one], for which the IC50 was 370 nM.

Take `Cc1cnc(CNC(=O)O[C@H]2CC[C@@]3(CCN(c4ccc(OC(F)(F)F)cc4)C3=O)CC2)cn1` [Example 25, (5-Methyl-pyrazin-2-ylmethyl)-carbamic acid [(5α,8β)-1-oxo-2-(4-trifluoromethoxy-phenyl)-2-aza-spiro[4.5]dec-8-yl]ester]: the IC50 is 80 nM.

`CC(C)(O)CNC(=O)O[C@H]1CC[C@@]2(CCN(c3ccc(OC(F)(F)F)cc3)C2=O)CC1` [Example 26, (2-Hydroxy-2-methyl-propyl)-carbamic acid [(5α,8β)-1-oxo-2-(4-trifluoromethoxy-phenyl)-2-aza-spiro[4.5]dec-8-yl]ester]: the IC50 worked out at 110 nM.

For the compound `O=C(NCCO)O[C@H]1CC[C@@]2(CCN(c3ccc(OC(F)(F)F)cc3)C2=O)CC1` [Example 27, (2-Hydroxy-ethyl)-carbamic acid [(5α,8β)-1-oxo-2-(4-trifluoromethoxy-phenyl)-2-aza-spiro[4.5]dec-8-yl]ester], the IC50 was 180 nM.

As for `O=C(NCc1cnccn1)O[C@H]1CC[C@@]2(CCN(c3ccc(OC(F)(F)F)cc3)C2=O)CC1` [Example 28, (Pyrazin-2-ylmethyl)-carbamic acid [(5α,8β)-1-oxo-2-(4-trifluoromethoxy-phenyl)-2-aza-spiro[4.5]dec-8-yl]ester], the IC50 amounted to 80 nM.

On to `O=C(NC1CC1)O[C@H]1CC[C@@]2(CCN(c3ccc(OC(F)(F)F)cc3)C2=O)CC1` [Example 29, Cyclopropyl-carbamic acid [(5α,8β)-1-oxo-2-(4-trifluoromethoxy-phenyl)-2-aza-spiro[4.5]dec-8-yl]ester], for which the IC50 worked out at 80 nM.

Turning to `NC(=O)O[C@H]1CC[C@@]2(CCN(c3ccc(OC(F)(F)F)cc3)C2=O)CC1` [Example 30, Carbamic acid [(5α,8β)-1-oxo-2-(4-trifluoromethoxy-phenyl)-2-aza-spiro[4.5]dec-8-yl]ester], the IC50 came to 250 nM.

Take `COc1ccc(N2CC[C@]3(CC[C@H](O)CC3)C2=O)cc1` [Example 31, (5α,8α)-8-Hydroxy-2-(4-methoxy-phenyl)-2-aza-spiro[4.5]decan-1-one]: the half-maximal inhibitory concentration (IC50) is 23700 nM.

Turning to `CCc1ccc(N2CC[C@]3(CC[C@H](O)CC3)C2=O)cc1` [Example 32, (5α,8α)-2-(4-Ethyl-phenyl)-8-hydroxy-2-aza-spiro[4.5]decan-1-one], the concentration for half-maximal inhibition (IC50) came out at 900 nM.

With `O=C1N(CCc2ccc(F)cc2)CC[C@]12CC[C@H](O)CC2` [Example 33, (5α,8α)-2-[2-(4-Fluoro-phenyl)-ethyl]-8-hydroxy-2-aza-spiro[4.5]decan-1-one], the IC50 is 6000 nM.

In the case of `CCc1ccc(CCN2CC[C@]3(CC[C@H](O)CC3)C2=O)cc1` [Example 34, (5α,8α)-2-[2-(4-Ethyl-phenyl)-ethyl]-8-hydroxy-2-aza-spiro[4.5]decan-1-one], the IC50 was 800 nM.

With `COc1ccc(CCN2CC[C@]3(CC[C@H](O)CC3)C2=O)cc1` [Example 35, (5α,8α)-8-Hydroxy-2-[2-(4-methoxy-phenyl)-ethyl]-2-aza-spiro[4.5]decan-1-one], the IC50 was 16500 nM.
